According to publication PMC12124364 (Science Advances, 2025):
Values belong to the compound of their own block, whether it stands above or below them.

Experiments:
HIV-1 WT strain (IIIB) = assay: Anti-HIV activity against HIV-1 IIIB in MT-4 cells; assay type: cell-based; settings: Human immunodeficiency virus 1, IIIB, MT4, read-out: EC50 IIIB strain
HIV-1 5i3res strain = assay: Anti-HIV activity against selected 5i3res strain in MT-4 cells; assay type: cell-based; settings: for EC50: Human immunodeficiency virus 1, MT4, read-out: EC50 5i3res strain
HIV-1 5e2res strain = assay: Anti-HIV activity against selected 5e2res strain in MT-4 cells; assay type: cell-based; settings: for RF (resistance fold), 5e2res strain: EC50(mutant strain)/EC50(IIIB strain); for EC50: Human immunodeficiency virus 1, MT4, read-out: EC50 5e2res strain
HIV-1 K103N mutation = settings: cited from earlier work
HIV-1 K101P mutation = settings: cited from earlier work
[1] = tested on: HIV-1 GH9 (K101P/K103N/V108I); settings: cited from earlier work
[2] = tested on: HIV-1 GH9 (K101P/K103N/V108I); assay: Anti-HIV-1 activity against triple-mutant strain GH9 in TZM-bl cells; assay type: cell-based; settings: Human immunodeficiency virus 1, TZM-bl, read-out: EC50 GH9
[3] = tested on: HIV-1 p1579 (E138G/H221Y/F227L/M230L); assay: Anti-HIV-1 activity against NNRTI-resistant strain p1579 in TZM-bl cells; assay type: cell-based; settings: Human immunodeficiency virus 1, TZM-bl, read-out: EC50 p1579
[4] = tested on: HIV-1 p5735 (K101E/Y181V); assay: Anti-HIV-1 activity against NNRTI-resistant strain p5735 in TZM-bl cells; assay type: cell-based; settings: Human immunodeficiency virus 1, TZM-bl, read-out: EC50 p5735
[5] = tested on: HIV-1 p5375 (A98G/K101E/E138K/Y181C); assay: Anti-HIV-1 activity against NNRTI-resistant strain p5375 in TZM-bl cells; assay type: cell-based; settings: Human immunodeficiency virus 1, TZM-bl, read-out: EC50 p5375
[6] = tested on: CYP1A2, CYP2C9, CYP2C19, CYP2D6 (range over isozymes); assay: Cytochrome P450 inhibition assay, ranges over isozymes; assay type: in vitro ADME; settings: human, human liver microsomes
[7] = tested on: HIV-1 p1833 (A98G/K101E/Y181C/G190A); assay: Anti-HIV-1 activity against NNRTI-resistant strain p1833 in TZM-bl cells; assay type: cell-based; settings: Human immunodeficiency virus 1, TZM-bl, read-out: EC50 p1833
[8] = Cytotoxicity in TZM-bl cells; assay type: cell-based; settings: human

Structure (SMILES): Cc1cn([C@H]2C[C@H](N=[N+]=[N-])[C@@H](CO)O2)c(=O)[nH]c1=O [AZT, zidovudine]
EC50 (HIV-1 WT strain (IIIB)): 40.9 nM
RF (resistance fold), 5i3res strain (HIV-1 5i3res strain; EC50(mutant strain)/EC50(IIIB strain)): 1.2
EC50 (HIV-1 5i3res strain): 48.9 nM
RF (resistance fold), 5e2res strain (HIV-1 5e2res strain): 1.3
EC50 (HIV-1 5e2res strain): 51.9 nM

Structure (SMILES): O=C1Nc2ccc(Cl)cc2[C@@](C#CC2CC2)(C(F)(F)F)O1 [EFV, efavirenz]
reduction in susceptibility by K103N mutation (HIV-1 K103N mutation): about 20 fold
reduction in efficacy by K101P mutation alone (HIV-1 K101P mutation): > 50 fold
resistance conferred by triple-mutant strain GH9 [1]: up to 12,931 fold

Structure (SMILES): Cc1cc(C#N)cc(C)c1Oc1nc(Nc2ccc(C#N)cc2)nc(N)c1Br [ETR, etravirine]
EC50 [2]: 104 ± 38.2 nM
EC50 [3]: 74.9 ± 18.9 nM
reduction in efficacy by K101P mutation alone (HIV-1 K101P mutation): about five-fold
EC50 [4]: 14.3 ± 5.07 nM
EC50 [5]: 37.6 ± 8.06 nM
IC50 at 10 min [6]: 277 to 12000 nM
EC50 [7]: 11.1 ± 2.76 nM

Structure (SMILES): Cc1ccnc2c1NC(=O)c1cccnc1N2C1CC1 [NVP, nevirapine]
EC50 5i3res strain (HIV-1 5i3res strain; MT-4 cells): completely inactive
EC50 5e2res strain (HIV-1 5e2res strain; MT-4 cells): completely inactive
reduction in susceptibility by K103N mutation (HIV-1 K103N mutation): ~50 fold

Structure (SMILES): Cc1cc(/C=C/C#N)cc(C)c1Nc1ccnc(Nc2ccc(C#N)cc2)n1 [RPV, rilpivirine]
EC50 (HIV-1 5i3res strain): 74.6 nM
EC50 [2]: 1710 ± 339 nM
EC50 (HIV-1 5e2res strain): 16.6 nM
EC50 [3]: 1.26 ± 0.38 nM
reduction in efficacy by K101P mutation alone (HIV-1 K101P mutation): up to 243 fold
resistance conferred by triple-mutant strain GH9 [1]: > 162 fold
EC50 [4]: 151 ± 32 nM
CC50 at 4 days [8]: > 54500 nM
EC50 [5]: 1.07 ± 0.3 nM

Structure (SMILES): Nc1ccn([C@H]2CC[C@@H](CO)O2)c(=O)n1 [ddC, zalcitabine]
EC50 (HIV-1 WT strain (IIIB)): 890 nM
RF (resistance fold), 5e2res strain (HIV-1 5e2res strain): 0.8
EC50 (HIV-1 5e2res strain): 690 nM

EC50 (HIV-1 WT strain (IIIB)): 19700 nM
EC50 (HIV-1 5i3res strain): 8930 nM
Structure (SMILES): O=c1[nH]cnc2c1ncn2[C@H]1CC[C@@H](CO)O1 [ddI, didanosine]
